Several values for one entry are separate records, joined by “and”; a condition that tells them apart may be missing. Equal values may be shown once. Entries after “also recorded” stand apart in the source; their conditions may differ.
Tests used:
[1] = tested on: A. gambiae; experiment: Membrane feeding assay, A. gambiae; assay type: in vivo, Anopheles gambiae; conditions: for % fed mosquitoes (mean ± s.e.m.), ATP + antagonist: antagonist 20 μM + 20 μM ATP; for feeding inhibition at maximum dose tested: maximum dose 20 μM
Experimental: Experiments with A. gambiae and A. stephensi were made in a climate chamber at 28° C. and 80% RH during the last 6 hours of scotophase. As a sugar meal can interfere with the blood meal by reducing the number of females that feed, the sucrose solution supplied in rearing cages to mosquitoes employed for feeding experiments was reduced to 5%. […] The 5% sucrose solution was presented to mosquitoes from emergence on four 1 cm diam. cotton dental rolls (Hartmann A G, Neuhausen, Switzerland) inserted in 10 ml upturned glass vials placed in holes at each corner of the rearing cage ceiling. Cotton rolls were turned daily in vials and renewed every two days. Mosquitoes were not fed blood and were deprived of sucrose 17 to 20 hours before experiments. Thirty min before a feeding experiment, between 10-25, 6-day-old females that responded to activation by human breath were removed with a mouth aspirator from the rearing cage wall and placed in polystyrol cylinders with the floor cut out (10 cm dm×15 cm high; Semadeni, Ostermundigen, Switzerland) that served as feeding cages. Each cage was covered with mosquito netting at one end and a soft polyurethane lid at the other.
Mosquitoes were fed for 30 min using a feeding system (Hemotek®, Hemotek Ltd, Blackburn, UK) consisting of 3.5 ml stainless steel reservoirs 37 mm in diameter covered with a 60-90 μm thick silicone-impregnated membrane (Kröber and Guerin, 2007 in “Feeding assays for hard ticks”, Trends in parasitology 23, 445-449; doi 10.1016/j.pt.2007.07.010). Feeding reservoirs reached a temperature of 37° C. within 10 min and were placed on the netting of feeding cages. Mosquitoes were activated using a 200 ms pulse of pure CO2 (volume 6.25 ml) from a pressurised cylinder (Carbagas, Switzerland) using a solenoid valve that caused the CO2 level in the feeding cage to rise to at least 1,500 ppm. Between 3 and 4 sets of 10 feeding cages held in a custom-built Ertacetal® POM frame were tested per day, depending of the number of female mosquitoes available from the colony.
All compounds were tested in a mosquito feeding solution (FS) consisting of 25 mM dextrose, 25 mM NaCl buffered with 8.93 mM NaHCO3 adjusted to pH 7.4. Feeding responses of A. gambiae and A. stephensi to ATP as a function of dose were tested with between 7 to 10 feeding cages per dose. Each feeding experiment with an antagonist systematically included a treatment containing the FS as negative control along with a treatment containing the FS with […] added as positive control for A. gambiae and with […] added as positive control for A. stephensi. These positive and negative controls permitted to monitor any effect of experimental day on feeding responses as a function of dose for antagonists that were recorded over several days. […] Four to 10 cages each with 10 to 29 mosquitoes were tested per antagonist dose. […] The number of feeding cages used to test other compounds and their mixtures as feeding stimulants or as feeding inhibitors is listed on Table 6. The percentage of fed mosquitoes was estimated by visual inspection of abdominal distention that is indicative of engorgement.
Pairwise comparisons of A. gambiae electrophysiological (EP) responses to ATP and adenosine alone and combined with a given dose of PR antagonist, EP responses to ATP alone and combined with a given dose of a metal modulator, and EP responses to ATP prior to and after exposure of a sensillum to a given dose of a PR antagonist were made with a one-tailed Wilcoxon signed-rank test for data showing a non-normal distribution, with a paired Student's t-test for normally distributed data showing homogeneous variance and with a Welch's t-test for normally distributed data showing non-homogeneous variance. […]

[2] = tested on: A. gambiae mouthpart ATP-sensitive receptor; experiment: Electrophysiological response to 200 pM ATP with PR antagonist admixed; assay type: cell-based, Anopheles gambiae; conditions: for ID50/ID95: block at maximum dose tested: admixed to 200 pM ATP
Experimental: (§1) The tip recording method was used to record action potentials (spikes) from sensory cells in sensilla on A. gambiae labellum lobes.
(§2) Sensilla were exposed to test compounds and PR antagonists for ca. 2-4 s and spikes were counted in the first 2 s of recordings. Up to 4 test compounds were tested on a sensillum to evaluate potential agonists, each presented at 200 pM. To study responses as a function of dose for agonists ATP, adenosine, AMP, AMP-CPP and ATP+adenosine, up to 7 recordings were made at increasing doses of agonist from the same sensillum. Unless otherwise stated, recordings were made throughout from 4 to 16 sensilla from individual 4-6-day-old females per dose of agonist, antagonist and metal ion modulator. For example, a response curve established over 6 doses of an antagonist using 8 sensilla per dose involved recording from a sensillum of 48 separate mosquitoes. A given dose of a PR antagonist or metal ion modulator was only presented once to a sensillum. Two-second recordings were imported as ASCII files into DataView software for analysis of spike amplitude. Differences in spike amplitude generated by stimulation of one 8v sensillum/female with 1 mM sucrose (n=294 spikes from 6 females) 200 pM adenosine (n=207 spikes from 7 females) and 200 pM ATP (n=192 spikes from 7 females) were compared by measuring the spike amplitude in mV between the highest point of depolarisation and the lowest point of hyperpolarisation.
Pairwise comparisons of A. gambiae electrophysiological (EP) responses to ATP and adenosine alone and combined with a given dose of PR antagonist, EP responses to ATP alone and combined with a given dose of a metal modulator, and EP responses to ATP prior to and after exposure of a sensillum to a given dose of a PR antagonist were made with a one-tailed Wilcoxon signed-rank test for data showing a non-normal distribution, with a paired Student's t-test for normally distributed data showing homogeneous variance and with a Welch's t-test for normally distributed data showing non-homogeneous variance. Effects on feeding of adding ATP, AMP-CPP, adenosine, ATP+adenosine, AMP and ADP-βS, CPT with ATP or adenosine, TMP with ATP+adenosine, TMP+CPT with ATP+adenosine to the FS for A. gambiae, and of adding PR antagonists with ATP to the FS for A. stephensi were compared using one-tailed Mann-Whitney U-test or Welch's t-test, depending on data distribution; Holm's FWEC was applied where treatment comparisons involved the same positive control. Percent feeding inhibition induced by PR antagonists in A. stephensi was calculated using Abbott's formula.
Dose-response models fitted to mosquito data were generated using the ‘drm’ command in the “drc” R package (version 2.5-12). Best fitting models (goodness of fit) and effects of dose of a compound were assessed using, respectively, ‘modelFit’ and ‘noEffect’ functions in the same R package. A 3-parameter logistic model (L3) was fitted to spike-counts recorded to increasing doses of adenosine, AMP, ATP and AMP-CPP. Spike numbers recorded in response to 200 pM ATP with increasing doses of PR antagonists added were analysed using a 4-parameter log-logistic model (LL.4) for A-317491 and spinorphin, using a 4-parameter Weibull model (W1.4) for PPADS, RB-2 and TMP, and using a 3-parameter log-logistic model (LL.3) for suramin. An L3 model was fitted to proportions of females feeding on increasing doses of ATP. Feeding rates on 20 μM ATP with increasing doses of a PR antagonist added were analysed using a 4-parameter log-logistic model (LL.4) with the median of the positive control (20 μM ATP) fixed as the upper asymptote. Response dynamics in 3-parameter models are related to the slope b, the upper asymptote, and inflexion point of the model e (the ED50 value), whereas 4 parameter models also include the lower asymptote parameter. […]

[3] = tested on: A. gambiae labellum sensilla (purine-sensitive cell); experiment: Tip recording of action potentials from A. gambiae labellum sensilla in response to agonists; assay type: cell-based, Anopheles gambiae; conditions: for EC50: Anopheles gambiae, read-out: ED50 (the source's name); for EC50 / ED95 / dose at which the unsurmountable asymptote is reached: spike frequency as a function of dose; for spikes recorded at the asymptote: at 250 pM; for Mean spike frequency per 2 s (±SEM): each compound at 200 pM alone and in binary mixtures, T1 labellum sensilla
Experimental: as §1, §2
Spike counts elicited by 200 pM doses of nucleotides, nucleosides, purines, pyrimidines and water were log(x+1.25)-transformed (optimal constant numerically established using a maximum likelihood procedure) and analysed using a linear mixed effects model (function ‘lme’ in “nlme” R package) with mosquito number as random effect. To model inhomogeneous variance in residuals (near normal distribution, P=0.045, Shapiro-Wilk test, W=0.98604), the variance function ‘varldent’ in the “nlme” package that allows for different variance per treatment was used. Statistical differences were identified between treatments using post-hoc-Tukey test with contrasts adjusted by Holm's family wise error compensation (FWEC). Spike counts elicited by ATP, AMP, adenosine and their binary mixtures were analysed using a generalised linear model (LM) of log (x+10) transformed data and differences were identified using post-hoc-Tukey test with Holm's FWEC.
Log transformed spike amplitudes generated in response to ATP, adenosine and sucrose were compared using linear mixed effects models using the ‘lme’ function of the “nlme” R package, with spike amplitude as the dependent variable, treatment as the fixed factor and mosquito number within treatment as random effect. Residuals were normally distributed (Shapiro-Wilk test P>0.0563) and their variances homogeneous (Bartlett test P>0.9799); P-values were corrected using Holm's FWEC.
Dose-response models fitted to mosquito data were generated using the ‘drm’ command in the “drc” R package (version 2.5-12). Best fitting models (goodness of fit) and effects of dose of a compound were assessed using, respectively, ‘modelFit’ and ‘noEffect’ functions in the same R package. A 3-parameter logistic model (L3) was fitted to spike-counts recorded to increasing doses of adenosine, AMP, ATP and AMP-CPP. Spike numbers recorded in response to 200 pM ATP with increasing doses of PR antagonists added were analysed using a 4-parameter log-logistic model (LL.4) for A-317491 and spinorphin, using a 4-parameter Weibull model (W1.4) for PPADS, RB-2 and TMP, and using a 3-parameter log-logistic model (LL.3) for suramin. An L3 model was fitted to proportions of females feeding on increasing doses of ATP. Feeding rates on 20 μM ATP with increasing doses of a PR antagonist added were analysed using a 4-parameter log-logistic model (LL.4) with the median of the positive control (20 μM ATP) fixed as the upper asymptote. […]

[4] = antagonist 1000 nM + 200 pM ATP

Clc1cccc(-c2nnnn2Cc2cccnc2)c1Cl [A-438079, 3-[[5-(2,3-dichlorophenyl)tetrazol-1-yl]methyl]pyridine]
% reduction in feeding ([1]; 20 μM, with 20 μM ATP): (20 μM, 30.74%)
% fed mosquitoes (mean ± s.e.m.), ATP + antagonist [1]: 48.65%
Mean no. of spikes per 2 s (±s.e.m.), ATP + antagonist [2, 4]: 22.57 spikes per 2 s
ID50/ID95: block at maximum dose tested ([2]; maximum dose 1 μM): No block (1 μM)

Nc1ncnc2c1ncn2[C@@H]1O[C@H](COP(=O)(O)OP(=O)(O)O)[C@@H](O)[C@H]1O [ADP, Adenosine 5′-diphosphate]
EP response in words ([3]; 200 pM): no activity; also recorded: failure

Nc1ncnc2c1ncn2[C@@H]1O[C@H](COP(=O)(O)O)[C@@H](O)[C@H]1O [AMP, Adenosine 5′-monophosphate]
EC50 [3]: ~0.12 nM
spikes recorded at the asymptote [3]: approximately 30 spikes/2 s
Mean spike frequency per 2 s (±SEM) [3]: 28.58 per 2 s
ED95 [3]: ~0.2 nM
dose at which the unsurmountable asymptote is reached [3]: 250 pM
% Engorged mosquitoes ([1]; 20 μM in feeding solution): 38.3 ± 5.1%

Nc1ncnc2c1ncn2C1OC(COP(=O)(O)CP(=O)(O)OP(=O)(O)O)C(O)C1O (stereo not drawn) [AMP-CPP, α,β-Methyleneadenosine-5′-triphosphate]
ED95 [3]: 0.05 nM
dose at which the unsurmountable asymptote is reached [3]: 80 pM
% Engorged mosquitoes ([1]; 20 μM in feeding solution): 84.35% and 84.3 ± 6.8%

Nc1ncnc2c1ncn2[C@@H]1O[C@H](CO)[C@@H](O)[C@H]1O [Adenosine, 9-β-D-Ribofuranosyladenine]
spike frequency ([3]; 50 pM alone, mixture 50 pM of each agonist): 1.25±0.62 /2s
EP response, spike frequency ([3]; 200 pM): 30.23±3.02 spikes/2s
EC50 [3]: ~0.12 nM
spikes recorded at the asymptote [3]: approximately 30 spikes/2 s
Mean spike frequency per 2 s (±SEM) [3]: 27.14 per 2 s
ED95 [3]: ~0.2 nM
dose at which the unsurmountable asymptote is reached [3]: 250 pM
% Engorged mosquitoes ([1]; 20 μM in feeding solution): 39.1 ± 5.7%
% Engorged mosquitoes ([1]; 1 mM in feeding solution): 64.4 ± 3.2%

Cc1nc(N=Nc2ccc(C(=O)O)cc2)c(COP(=O)(O)O)c(C=O)c1O [MRS 2159, [2-[(4-carboxyphenyl)diazenyl]-4-formyl-6-methyl-5-oxidopyridin-3-yl]methyl phosphate]
% fed mosquitoes (mean ± s.e.m.), ATP + antagonist [1]: 79.19%
feeding inhibition at maximum dose tested ([1]; with 20 μM ATP): No feeding inhibition
Mean no. of spikes per 2 s (±s.e.m.), ATP + antagonist [2, 4]: 27.14 spikes per 2 s
ID50/ID95: block at maximum dose tested ([2]; maximum dose 1 μM): No block (1 μM)

Fc1ccc([C@@H]2CCNC[C@H]2COc2ccc3c(c2)OCO3)cc1 [Paroxetine, (3S,4R)-3-(1,3-benzodioxol-5-yloxymethyl)-4-(4-fluorophenyl)piperidine]
% fed mosquitoes (mean ± s.e.m.), ATP + antagonist [1]: 62.72%
feeding inhibition at maximum dose tested ([1]; with 20 μM ATP): No feeding inhibition
Mean no. of spikes per 2 s (±s.e.m.), ATP + antagonist ([2]; antagonist 2000 nM + 200 pM ATP): 27.6 spikes per 2 s
ID50/ID95: block at maximum dose tested ([2]; maximum dose 2 μM): No block (2 μM)

Nc1ncnc2c1ncn2[C@H]1C[C@H](O)[C@@H](COP(=O)(O)OP(=O)(O)OP(=O)(O)O)O1 [dATP, 2′-Deoxyadenosine 5′-triphosphate]
EP response in words ([3]; 200 pM): strongly reduced activity

Nc1ncnc2c1ncn2[C@H]1CC[C@@H](COP(=O)(O)OP(=O)(O)OP(=O)(O)O)O1 [ddATP, 2′,3′-Dideoxyadenosine-5′-triphosphate]
EP response in words ([3]; 200 pM): strongly reduced activity

— patent US20250057791A1, “PROTECTION AGAINST ARTHROPOD PARASITES WITH PURINERGIC RECEPTOR (OPR) ANTAGONISTS” (priority 2021, published 2025)
